# Source: ChEMBL document CHEMBL5260832, “Hepatoprotective natural triterpenoids” (Eur J Med Chem, 2018)
# Tests used:
# Mus musculus [1] = organism: Mus musculus; assay: Hepatoprotective activity in mouse model of CCl4-induced liver injury assessed as reduction in ALT level at 100 microg/ml (reference value: 40.2 U/mL); format: functional; conditions: dose 100 µg/ml
# Mus musculus [2] = organism: Mus musculus; assay: Hepatoprotective activity in GaIN-induced toxicity in liver injured mouse assessed as increase in inhibition of liver damage at 50 uM relative to control; format: functional; design: scale not given: the % may be the effect or the level left
# Mus musculus [3] = organism: Mus musculus; assay: Hepatoprotective activity in CCl4-induced toxicity in liver injured mouse assessed as increase in inhibition of liver damage at 50 uM relative to control; format: functional; design: scale not given: the % may be the effect or the level left
# HepG2 [4] = assay: Hepatoprotective activity against H2O2-induced human HepG2 cells assessed as increase in ALT level; format: functional
# HepG2 [5] = assay: Hepatoprotective activity against H2O2-induced human HepG2 cells assessed as increase in AST level at 186.00 uM; format: functional
# Huh-7 [6] = assay: Hepatoprotective activity in human Huh-7 cells assessed as reduction in AST level; format: functional; design: scale not given: the % may be the effect or the level left
# Huh-7 [7] = assay: Hepatoprotective activity in human Huh-7 cells assessed as reduction in ALT level; format: functional; design: scale not given: the % may be the effect or the level left
# Huh-7 [8] = assay: Hepatoprotective activity in human Huh-7 cells assessed as increasing in GSH level; format: functional
# Mus musculus [9] = assay: Hepatoprotective activity in mouse model of D-GaIN/LPS-induced liver injury assessed as inhibition of sAST secretion at 100 mg/kg, po relative to control; format: functional
# Mus musculus [10] = assay: Hepatoprotective activity in mouse model of D-GaIN/LPS-induced liver injury assessed as inhibition of sALT level secretion at 100 mg/kg, po relative to control; format: functional
# Hepatocyte [11] = assay: Hepatoprotective activity against D-GaIN-induced toxicity in mouse hepatocytes
# Hepatocyte [12] = assay: Hepatoprotective activity against D-GaIN-induced toxicity in mouse hepatocyte relative to control; format: functional, cell-based
# Rattus norvegicus [13] = assay: Hepatoprotective activity in GaIN-induced rat model of liver injury assessed as reduction in ALT level at 4 mg/kg relative to control; format: functional; design: scale not given: the % may be the effect or the level left
# Rattus norvegicus [14] = assay: Hepatoprotective activity in ethanol-induced rat model of liver injury assessed as reduction in AST level at 4 mg/kg relative to control; format: functional; design: scale not given: the % may be the effect or the level left
# Rattus norvegicus [15] = assay: Hepatoprotective activity in ethanol-induced rat model of liver injury assessed as reduction in ALT level at 4 mg/kg relative to control; format: functional; design: scale not given: the % may be the effect or the level left
# Mus musculus [16] = organism: Mus musculus; assay: Hepatoprotective activity in CCl4-induced toxicity in liver injured mouse assessed as increase in inhibition of liver damage relative to control; format: functional; design: concentration or dose not given beside the values
# HepG2 [17] = assay: Hepatoprotective activity against H2O2-induced cell death in human HepG2 cells assessed as reduction in AST level at 74.60 uM preincubated for 1 hr followed by H2O2-stimulation and measured after 24 hrs; format: functional; conditions: dose 74.6 µM
# HepG2 [18] = assay: Hepatoprotective activity against H2O2-induced cell death in human HepG2 cells assessed as reduction in AST level at 18.65 uM preincubated for 1 hr followed by H2O2-stimulation and measured after 24 hrs; format: functional
# HepG2 [19] = assay: Hepatoprotective activity against H2O2-induced cell death in human HepG2 cells assessed as reduction in ALT level at 74.60 uM preincubated for 1 hr followed by H2O2-stimulation and measured after 24 hrs; format: functional; conditions: dose 74.6 µM
# Mus musculus [20] = assay: Hepatoprotective activity against CCl4-induced mouse acute liver injury model assessed as decreased LDH level at 15 mg/kg, ip relative to control; format: functional; design: scale not given: the % may be the effect or the level left
# Mus musculus [21] = assay: Hepatoprotective activity against CCl4-induced mouse chronic liver injury model assessed as decreased AP level at 15 mg/kg, ip relative to control; format: functional; design: scale not given: the % may be the effect or the level left
# Mus musculus [22] = assay: Hepatoprotective activity against CCl4-induced mouse acute liver injury model assessed as decreased AP level at 15 mg/kg, ip relative to control; format: functional; design: scale not given: the % may be the effect or the level left
# Mus musculus [23] = assay: Hepatoprotective activity against CCl4-induced mouse chronic liver injury model assessed as decreased sGOT level at 15 mg/kg, ip relative to control; format: functional; design: scale not given: the % may be the effect or the level left
# Mus musculus [24] = assay: Hepatoprotective activity against CCl4-induced mouse acute liver injury model assessed as decreased sGPT level at 15 mg/kg, ip relative to control; format: functional; design: scale not given: the % may be the effect or the level left
# Mus musculus [25] = assay: Hepatoprotective activity against CCl4-induced mouse chronic liver injury model assessed as decreased LDH level at 15 mg/kg, ip relative to control; format: functional; design: scale not given: the % may be the effect or the level left
# Mus musculus [26] = assay: Hepatoprotective activity against CCl4-induced mouse acute liver injury model assessed as decreased sGOT level at 15 mg/kg, ip relative to control; format: functional; design: scale not given: the % may be the effect or the level left
# Mus musculus [27] = assay: Hepatoprotective activity against CCl4-induced mouse chronic liver injury model assessed as decreased sGPT level at 15 mg/kg, ip relative to control; format: functional; design: scale not given: the % may be the effect or the level left
# Hepatocyte [28] = assay: Hepatoprotective activity against CCL4-induced rat hepatocyte toxicity assessed as decrease in MDA level at 0.25 mg/ml (reference value: 9.22 nmol/mg); format: functional
# Hepatocyte [29] = assay: Hepatoprotective activity against CCL4-induced rat hepatocyte toxicity assessed as decrease in ALT level at 0.25 mg/ml (reference value: 119.0 U/L); format: functional
# Hepatocyte [30] = assay: Hepatoprotective activity against CCL4-induced rat hepatocyte toxicity assessed as increase in SOD level at 0.25 mg/ml (reference value: 125.8 U/L); format: functional
# Hepatocyte [31] = assay: Hepatoprotective activity against CCL4-induced rat hepatocyte toxicity assessed as increase in GSH level at 0.25 mg/ml (reference value: 3.7 mg/g); format: functional
# Hepatocyte [32] = assay: Hepatoprotective activity against CCL4-induced rat hepatocyte toxicity assessed as decrease in AST level at 0.25 mg/ml (reference value: 243.5 U/L); format: functional
smiles,measurement,setting,value
C=C1[C@H](O)C[C@]2(C)CC[C@]3(C)C(=C[C@@H](O)[C@@H]4[C@@]5(C)CC[C@H](OC(C)=O)C(C)(C)[C@@H]5CC[C@]43C)[C@@H]2[C@@H]1C,Activity,Mus musculus [1],15.7 U/ml
C[C@H]1[C@H](C)CC[C@]2(C(=O)O)CC[C@]3(C)C(=CC[C@@H]4[C@@]5(C)CC(=O)[C@H](O)[C@@](C)(CO)[C@@H]5CC[C@]43C)[C@H]12,Activity,Mus musculus [2],49%
same,Activity,Mus musculus [3],54.3%
C/C(=C\CC[C@@H](C)[C@H]1CC[C@@]2(C)C3=C(CC[C@]12C)[C@@]1(C)CC[C@H](O)C(C)(C)[C@@H]1CC3=O)C(=O)O,Activity,HepG2 [4],20.95 U/L
same,Activity,HepG2 [5],24.27 U/L
C[C@H]1[C@H](C)CC[C@]2(C(=O)O)CC[C@]3(C)C(=CC[C@@H]4[C@@]5(C)CC[C@H](O)C(C)(C)[C@@H]5CC[C@]43C)[C@H]12 [URSOLIC ACID],Activity,Huh-7 [6],37.5%
same,Activity,Huh-7 [7],37.5%
same,Activity,Huh-7 [8],2.37 mg
C[C@@H]1CC[C@]2(C(=O)O[C@@H]3O[C@H](CO)[C@@H](O)[C@H](O)[C@H]3O)CC[C@]3(C)C(=CC[C@@H]4[C@@]5(C)C[C@@H](O)C(=O)C(C)(C)[C@@H]5CC[C@]43C)[C@@H]2[C@]1(C)O,inhibition in vivo at 100 mg/kg,Mus musculus [9],76.8%
same,inhibition in vivo at 100 mg/kg,Mus musculus [10],78.4%
same,IC50,Hepatocyte [11],46.7 µM
same,IC50,Hepatocyte [12],46.7 µM
C[C@H]1[C@H](C)CC[C@]2(C(=O)O)CC[C@]3(C)C(=CC[C@@H]4[C@@]5(C)C[C@@H](O)[C@H](O)[C@@](C)(CO)[C@@H]5CC[C@]43C)[C@H]12 [ASIATIC ACID],Activity,Rattus norvegicus [13],23.1%
same,Activity,Rattus norvegicus [14],25%
same,Activity,Rattus norvegicus [15],20%
same,Activity,Mus musculus [16],1%
C=C(C)[C@@H]1C[C@H](O)C2=C(C(=O)C[C@]3(C)[C@@H]([C@H](C)CCC(=O)OC)CC[C@@]23C)[C@@]1(C)CCC(=O)O,Activity,HepG2 [17],10.53 U/L
same,Activity,HepG2 [18],19.56 U/L
same,Activity,HepG2 [19],7.22 U/L
CC1(C)CC[C@]2(C)CC[C@]3(C)C(=CC[C@@H]4[C@@]5(C)CCC(=O)C(C)(C)[C@@H]5C(O)C[C@]43C)[C@@H]2C1 (some centres not stated),Activity,Mus musculus [20],45%
same,Activity,Mus musculus [21],55.3%
same,Activity,Mus musculus [22],40.6%
same,Activity,Mus musculus [23],38.8%
same,Activity,Mus musculus [24],45.3%
same,Activity,Mus musculus [25],24.8%
same,Activity,Mus musculus [26],51.3%
same,Activity,Mus musculus [27],36.4%
CC1(C)CC[C@]2(C(=O)O[C@@H]3O[C@H](CO[C@@H]4O[C@H](CO)[C@@H](O)[C@H](O)[C@H]4O)[C@@H](O)[C@H](O)[C@H]3O)CC[C@]3(C)C(=CC[C@@H]4[C@@]5(C)CCC(O[C@@H]6OC[C@H](O)[C@H](O)[C@H]6O)[C@@](C)(CO)[C@@H]5CC[C@]43C)[C@@H]2C1 (some centres not stated),Activity,Hepatocyte [28],9.22 nmol/mg
same,Activity,Hepatocyte [29],82.1 U/L
same,Activity,Hepatocyte [30],161.4 U/L
same,Activity,Hepatocyte [31],5.3 mg/g
same,Activity,Hepatocyte [32],167.5 U/L
